Row | Compound | melting point [°C]
1 | O=c1ccc(S(=O)(=O)c2cc3ccccc3s2)n[nH]1 | 209 to 210
2 | CCC1(O)CC(=O)OCc2c1cc1n(c2=O)Cc2cc3c4c(c(F)cc3nc2-1)OCN(Cc1ccccc1)C4 (stereo not drawn) | > 250
3 | O=C(Nc1ccccc1S(=O)(=O)N1CCCCC1)N[C@@H](Cc1ccc(Nc2nccc3ccncc23)cc1)C(=O)O | 179
4 | CCCc1c(-c2ccccc2)nc2n1CCc1ccccc1C2OC1CCN(C)CC1 (stereo not drawn) | 144
5 | CCCn1c(CCOC)nc2c(N)nc3cc(Oc4ccc(S(C)(=O)=O)cc4)ccc3c21 | 210 to 212
6 | COC1=CC(=O)c2c(C)cc(C)cc2C1=O | 146 to 148
7 | CNC(=O)NCCSCc1ccccn1 | 63 to 66
8 | O=C(C=Cc1cccc(-c2ccccc2)c1)Nc1ccc(CN2CCCCC2)cc1 | 159 to 160
9 | CNS(=O)(=O)c1cc(C(=O)c2c(C)oc3ccccc23)ccc1Cl | 146
10 | CC(C)(C)c1ccc(/C=N/OCc2ccc(C(=O)O)c(Br)c2)cc1 | 162 to 163
11 | NC(=O)c1nnc2n1-c1sc(Cl)cc1C(c1ccccc1Cl)=NC2 | 248 to 251
12 | Oc1ccc2nc(NC3=NCCN3)[nH]c2c1 | 254 to 258
13 | CSCC(C)NC(=O)c1c(I)cccc1C(=O)Nc1ccc(C2(C(F)(F)F)CC(c3ccc(Cl)cc3)=NO2)cc1C (stereo not drawn) | 116 to 120
14 | COc1c(C)c(C)c(OC)c(Cc2ccccc2)c1C | 53 to 54
15 | Nc1cc(Cl)nc(Cl)c1N | 186 to 188
16 | CS(=O)(=O)C(C#N)=Cc1ccc2[nH]ccc2c1 | 184 to 185
17 | COc1cccc2nc(-c3ccc(OCCNC(C)C)c(-c4ccc(S(C)(=O)=O)cc4)n3)[nH]c(=O)c12 | 222 to 223
18 | CCC1(CC)CCNC1=O | 52 to 53
19 | Cc1noc(NS(=O)(=O)c2ccccc2-c2ccc(-c3ncco3)cc2Cn2cccn2)c1C | 140 to 146
20 | COc1ccc(C(=O)CCC(=O)N[C@@H](Cc2ccccc2)C(=O)O)cc1 | 131 to 133
21 | Cn1cc(-c2ccc(F)cc2)nc1SCCSc1nc(-c2ccc(F)cc2)c(-c2ccc(F)cc2)[nH]1 | 202 to 205
22 | CC1CS/C(=N/N=C\c2ccc(-c3ncn(-c4ccc(OC(F)(F)F)cc4)n3)cc2)N(c2ccccc2C(C)C)C1 (stereo not drawn) | 186 to 190
23 | O=C1NC(=O)c2c1c(-c1ccccc1)cc1[nH]c3ccccc3c21 | 262 to 264
24 | Nc1cccc(/C=C/c2nc(C3CCCC3)cs2)c1 | 59 to 61
25 | COc1cc(Cc2cc3cc(Cl)ccc3n2S(=O)(=O)c2ccc(C(C)C)cc2)ccc1C(=O)O | 67

Row | Compound | melting point [°C]
26 | Cc1nc(C)c(C(=O)Nc2ccc(-n3nc(C(F)(F)F)cc3C(F)(F)F)cc2)s1 | 158 to 159
27 | COc1ccc2c(-c3c(F)cccc3F)noc2c1Cl | 175 to 179
28 | COc1ccc2c(c1)C(CCNC(=O)C(F)(F)F)C1(CC2)Cc2ccccc2C1 (stereo not drawn) | 149 to 152
29 | COc1cc(Cc2n[nH]c3c2c(=O)n(-c2ccccc2)c2ncccc32)cc(OC)c1 | 258 to 259
30 | Cn1c(-c2cc(C(C)(C)C)c(O)c(C(C)(C)C)c2)cnc1S | 288 to 289
31 | COc1ccnc(CS(=O)c2nc3cc(Cl)c(Cl)cc3[nH]2)c1C (stereo not drawn) | 173
32 | CC(=O)c1cccc2cc3c(C(C)=O)cccc3cc12 | 185 to 205
33 | CCOC(=O)c1csc(/C=C/C(=O)c2ccc3c(c2)C2(C)C4(C)CCC(C4)C2(C)O3)c1 (stereo not drawn) | 149 to 151
34 | COc1cc2c(cc1OC)CCN(CCCN(C)C1CCc3cc(OC)c(OC)cc3C1)CC2 (stereo not drawn) | 92 to 93
35 | CC(C)OCC1(C(C)(F)F)c2cc(C#N)ccc2Nc2ncccc21 (stereo not drawn) | 134 to 135
36 | O=C(O)c1cc(-n2c(-c3ccccc3)cc3c2CCCC3)ccc1S | 186 to 188
37 | CNc1scc(C)c1C(=O)c1ccccc1Cl | 132 to 134
38 | CCN(CC)c1ccc([PH](=O)c2ccc(N(CC)CC)cc2)cc1 | 129
39 | COC(C)(CCCCC(C)(C)O)c1cccc(C=Cc2cc(O)cc(O)c2)c1 (stereo not drawn) | 65 to 75
40 | O=S(c1ccncc1)C1CCNCC1 (stereo not drawn) | 73 to 76
41 | Nc1cc(=O)n(Cc2ccc(OC(F)(F)F)cc2)[nH]1 | 99
42 | O=C(O)c1cc2c(C(F)(F)F)c(F)ccc2[nH]1 | 204 to 210
43 | CSc1nn2c(N)cc(C3CC3)nc2c1S(=O)(=O)c1ccccc1 | > 230
44 | CC1(C)NC(=O)N(CC#CI)C1=O | 118 to 126
45 | OC[C@@H]1CC[C@H]2CN(c3ncc(F)cn3)CCN2C1 | 148 to 150
46 | CC(=O)OC1=C(c2ccccc2)C(=O)N(C(C)(C)c2ccccc2)C1 | 149 to 150
47 | CCc1nc2c(cnn2CC)c(NC2CCOCC2)c1CNC(=O)c1cc(C)cc(C(=O)NCc2cccc(Br)c2)c1 | 116 to 118
48 | CN1C(=O)CN=C(c2ccccc2F)c2c1ccc(NC(=O)NCCO)c2Cl | 150 to 153
49 | CCNC(=O)[C@@H](C[C@H](O)[C@H](CC1CCCCC1)NC(=O)[C@H](Cc1cscn1)NC(=O)OC(C)(C)C)C(C)(C)O | 189 to 191
50 | CCCCC(Cc1ccc(OCCNC(=O)c2ccc(-c3cccc(C(=O)O)c3)cc2)cc1)C(=O)O (stereo not drawn) | 142 to 143

Row | Compound | melting point [°C]
51 | N#Cc1csc(CN2C(=O)C3(COc4cc5c(cc43)OCO5)c3ccccc32)c1 (stereo not drawn) | 207 to 209
52 | CC(c1cccnc1)N(c1ccc(F)cc1)S(C)(=O)=O (stereo not drawn) | 82 to 85
53 | CC(C)(C)c1cc(CO)nn1-c1ccc(S(C)(=O)=O)cc1 | 143 to 146
54 | CCCCOc1ccc(-c2ccc([C@H]3CC[C@H](CCC)CC3)c(C#N)c2C#N)cc1 | 115
55 | Cc1nc2n(c(=O)c1CCN1CCN(c3noc4cc(F)ccc34)CC1)CCS2 | 193
56 | Cc1ccc(COc2ncc(F)c(NCO)n2)cc1 | 97 to 98
57 | Cc1ccc(-c2cc(N3CCCCC3)c(C#N)c3c2-c2ccccc2C3)cc1 | 162 to 164
58 | CC#Cc1ccc(NC(=O)c2cccnc2NCc2ccc(=O)[nH]c2)cc1C(F)(F)F | 211 to 218
59 | O=C(O)CCOc1cccc2cccnc12 | 211 to 213
60 | COc1cc(-c2ccc(O)c(C3(C)CCCCC3)c2)cc(CC2SC(N(C)C)=NC2=O)c1OC (stereo not drawn) | 187 to 188
61 | CCOC(=O)C1=Cc2cc(-c3ccc(C)cc3)ccc2OC1C (stereo not drawn) | 82 to 84
62 | CCOC(=O)C(=O)Nc1ccc(C(N)=O)c(C(N)=O)c1 | 229 to 230
63 | CCC(CC)c1ccc(Cl)c2nc3n(c12)CCN3c1ccc(Cl)cc1C(N)=O | > 300
64 | COc1ccc(C2=CC(N3CCN(Cc4ccccc4)CC3)=NC23C=CC(=O)C=C3)cc1 | 190
65 | CCn1nnc2cc3c(cc2c1=O)OC1CCCN1C3=O (stereo not drawn) | 186 to 188
66 | COC(=O)c1cc(N)c(F)c(Cl)n1 | 180 to 183
67 | CN1C[C@@H]2c3cc(Cl)ccc3Oc3ccccc3[C@H]2C1=O (relative stereo) | 148
68 | CCCCCCCCCCCCCCCCC12CCC3=C(CCc4cc(OC)ccc43)C1=CCC2=O (stereo not drawn) | 55 to 56
69 | CC(C)Sc1ccc(N)c(C#N)c1 | 67 to 68
70 | Cc1ncc(N2N=C(c3ccc([N+](=O)[O-])cc3)c3cc4c(cc3CC2C)OCO4)o1 (stereo not drawn) | 203 to 205
71 | CC1(C)C(=O)C(C)(C)c2cc([N+](=O)[O-])c([N+](=O)[O-])cc21 | 212 to 218
72 | O=C(NCc1ccc(C=NO)cc1Cl)C1CC1 | 163 to 166
73 | CCC(CC)c1ccc(Cl)c2nc3n(c12)CCCCN3c1ccc(C(=O)NC)cc1C | 127 to 128
74 | CC(C#Cc1ccc(-c2ccccc2)o1)N(O)C(N)=O (stereo not drawn) | 163 to 164
75 | CC(=O)Oc1cc(OC(C)=O)c(C)c(C(=O)OCC(Cl)(Cl)Cl)c1C | 127 to 128

Row | Compound | melting point [°C]
76 | O=C(c1cc(Br)c(OCP(=O)(O)O)c(Br)c1)c1c(Cc2ccccc2)sc2ccccc12 | 210 to 212
77 | CN(C)c1ncnc2c1ncn2Cc1c(Cl)cccc1Cl | 174 to 175
78 | Cc1cn(C(C)(C)C(=O)N(C)C)nc1-c1ccco1 | 131 to 134
79 | CC(C)C[C@H](NC(=O)c1cccc2c1Nc1ccccc1S2)C(=O)N[C@H]1CCOC1O (stereo partly drawn) | 99 to 101
80 | NC1=NC(c2cccc(-c3cccnc3F)c2)C2=NC(c3ccc(OC(F)F)cc3)C3(CCC3)CN12 (stereo not drawn) | 220 to 226
81 | O=C(CBr)CCc1ccc(Cl)cc1 | 51
82 | CC(=O)Nc1ccc(OCC2CO2)c(-c2nnco2)c1 (stereo not drawn) | 173 to 175
83 | CCCc1nc2c(N)nc3c(c2n1CC(C)(C)OCCS(C)(=O)=O)CCCC3 | 188 to 190
84 | O=C1c2cccc3cccc(c23)C(=O)N1CCO | 172 to 173
85 | COc1ccc(C(=O)O)c(OCc2ccc(OCCc3nc(-c4ccccc4)oc3C)cc2)c1 | 113 to 115
86 | COC(=NC(=O)N(C)C)NC(=O)NC(C)(C)C | 96 to 98
87 | CC(=O)N1CCC2(CC1)CN=C(c1cc3cccc(N(C)S(=O)(=O)c4cccs4)c3[nH]1)S2 | 216 to 218
88 | CCc1cc([N+](=O)[O-])c(Cl)c([N+](=O)[O-])c1COC | 81 to 82
89 | Cc1cc(C)cc(N(CCCC(N)=O)Cc2ccc3nc(NCCCN4CCOCC4)n(Cc4cccc5cccnc45)c3c2)c1 | 154
90 | CCC(=O)c1cccc(S(N)(=O)=O)c1 | 152 to 153
91 | Cc1c(Br)c2c(c(C)c1NC(=O)OC(C)(C)C)C(N1CCCC1)C(C)(C)O2 (stereo not drawn) | 128 to 130
92 | CNc1nc2ccc(OC(F)(F)F)cc2s1 | 162
93 | CC(=O)OC[C@H](Cc1ccccc1)NC(=O)[C@H](Cc1ccccc1)NC(=O)c1ccccc1 | 186 to 187
94 | CCCc1c(C(=O)C(C)C)c2ccc(C(=O)O)cc2n1Cc1ccc(Br)cc1F | 210 to 211
95 | O=C(O)CN1CCC(OC(c2ccc(F)cc2)c2ccc(F)cc2)CC1 | 126 to 128
96 | Brc1ccc(Oc2ccc(-n3ccnc3)nn2)cc1 | 168
97 | CCc1cccc(CNC[C@@H](O)[C@H](Cc2cc(F)cc(F)c2)NC(=O)C2CCC(CS(C)(=O)=O)CC2)c1 (stereo partly drawn) | 45 to 50
98 | CC(C)NC(=O)c1c(NC(=O)c2cc(C(F)(F)F)nn2-c2ncccc2Cl)ccc2cn[nH]c12 | 203 to 205

Source: a melting point compilation (Tetko et al.; mined from patent text by program, amines drawn as free bases though some values may be those of a salt)
